# Laboratory results published in ChEMBL document CHEMBL1145674, “Isolation and identification of "diazepam-like" compounds from bovine urine” (J Nat Prod, 1983).
# Test system: not listed separately
# Experiment: Displacement of [3H]diazepam from benzodiazepine receptor in rat cerebral cortex membrane
# Format: cell membranes
row,Compound,IC50 [µM]
1,O=c1c(-c2cccc(O)c2)coc2cc(O)ccc12,140
2,Oc1cccc(C2COc3cc(O)ccc3C2)c1 (racemic),45
3,COc1ccc2c(c1)OCC(c1ccc(O)cc1)C2 (racemic),1300
4,COc1ccc(C2COc3cc(O)ccc3C2)cc1 (racemic),1500
5,Oc1ccc([C@H]2COc3cc(O)ccc3C2)cc1 [AUS-131],80
6,CN1C(=O)CN=C(c2ccccc2)c2cc(Cl)ccc21 [DIAZEPAM],0.005
7,COc1ccc(-c2coc3cc(O)ccc3c2=O)cc1 [FORMONONETIN],700
8,O=c1[nH]cnc2nc[nH]c12 [HYPOXANTHINE],700
9,O=c1[nH]cnc2c1ncn2[C@@H]1O[C@H](CO)[C@@H](O)[C@H]1O [INOSINE],900
10,COc1ccc2c(=O)c(-c3ccc(O)cc3)coc2c1 [ISOFORMONENTIN],1100
11,NC(=O)c1cccnc1 [NIACINAMIDE],3900

# Organism: Rattus norvegicus
# Experiment: Increase in [3H]diazepam binding to benzodiazepine receptor in rat cerebral cortex membrane at 0.5 mM relative to control
# Format: cell membranes
row,Compound,Activity [%]
1,Clc1ccc2[nH]c3ccccc3c2c1,143

# Organism: Rattus norvegicus
# Experiment: Increase in [3H]diazepam binding to benzodiazepine receptor in rat cerebral cortex membrane at 1 mM relative to control
# Format: cell membranes
row,Compound,Activity [%]
1,Clc1ccc2[nH]c3ccccc3c2c1,172
